Data from US20100303758A1, “Novel Glucocorticoid Receptor Agonists” (priority 2009, published 2010).

How the values were obtained:
[1] = Inhibition of TNF-α release from LPS stimulated isolated human PBMC; format: cell-based; conditions: Homo sapiens, PBMC, read-out: IC50 (nM) for inhibition of TNF-α release
Experimental: The anti-inflammatory activity of the compounds against human leukocytes in vitro was also evaluated by determining inhibition of tumour necrosis factor-α (TNF-α) release from lipopolysaccharide (LPS) stimulated isolated human peripheral mononuclear cells (PBMC).
Peripheral venous blood from healthy, non-medicated donors was collected using ethylenediaminetetraacetic acid (EDTA) as the anti-coagulant. For PBMC preparation, samples of blood were diluted 1:1 with sterile phosphate buffered saline and then separated using ACCUSPIN™ System-Histopaque®-1077 tubes (Sigma-Aldrich, St Louis, Mo.), centrifuged at 400 g for 35 minutes. Buffy coat cells were removed into PBS, centrifuged at 200 g for 10 minutes and re-suspended in PBMC assay buffer (Hanks Balanced Salt Solution, 0.28% [w/v] 4-[2-hydroxyethyl]-1-piperazineethanesulfonic acid [HEPES], 0.01% [w/v] low-endotoxin bovine serum albumin [BSA]. A differential white cell count was performed and PBMC's diluted to 1×10^6 lymphocytes per ml in PBMC assay buffer.
Test compounds were dissolved in DMSO and diluted in PBMC assay buffer (final DMSO concentration 1%) to cover an appropriate concentration range, e.g 0.001 nM to 10000 nM. Samples of test compound solution or vehicle (20 μl) were added into 96-well tissue culture treated plates (Corning) and PBMC (160 μl) added to each well. The assay mixtures were incubated at 37° C. for 1 h in a humidified incubator containing an atmosphere of air supplemented with 5% CO2 before adding LPS (20 μl of 100 ng/ml for PBMC). Plates were returned to the incubator for a further 18 hours, and then centrifuged before recovery of samples of supernatant. TNF-α in the samples was determined using an enzyme-linked immunosorbent assay (ELISA) (Invitrogen kit no CHC-1754; Invitrogen Carlsbad, Calif.) and following the manufacturers instructions. Dose response curves were constructed from which IC50 values were calculated.

[2] = molecular target: T1, human GR (Homo sapiens, UniProt P04150); assay: GR agonist potency, MMTV-luciferase reporter in SW1353 cells; format: cell-based; conditions: human chondrosarcoma cell-line SW1353 stably transfected with MMTV-luciferase reporter; approx. 18 hours; data as percentage of 1 μM dexamethasone positive control
T1 construct: SW1353 naturally expresses human GR; endogenous in cells; host or cells: human chondrosarcoma cell-line SW1353 stably transfected with an MMTV-luciferase reporter construct
T1 sequence (P04150 1-777): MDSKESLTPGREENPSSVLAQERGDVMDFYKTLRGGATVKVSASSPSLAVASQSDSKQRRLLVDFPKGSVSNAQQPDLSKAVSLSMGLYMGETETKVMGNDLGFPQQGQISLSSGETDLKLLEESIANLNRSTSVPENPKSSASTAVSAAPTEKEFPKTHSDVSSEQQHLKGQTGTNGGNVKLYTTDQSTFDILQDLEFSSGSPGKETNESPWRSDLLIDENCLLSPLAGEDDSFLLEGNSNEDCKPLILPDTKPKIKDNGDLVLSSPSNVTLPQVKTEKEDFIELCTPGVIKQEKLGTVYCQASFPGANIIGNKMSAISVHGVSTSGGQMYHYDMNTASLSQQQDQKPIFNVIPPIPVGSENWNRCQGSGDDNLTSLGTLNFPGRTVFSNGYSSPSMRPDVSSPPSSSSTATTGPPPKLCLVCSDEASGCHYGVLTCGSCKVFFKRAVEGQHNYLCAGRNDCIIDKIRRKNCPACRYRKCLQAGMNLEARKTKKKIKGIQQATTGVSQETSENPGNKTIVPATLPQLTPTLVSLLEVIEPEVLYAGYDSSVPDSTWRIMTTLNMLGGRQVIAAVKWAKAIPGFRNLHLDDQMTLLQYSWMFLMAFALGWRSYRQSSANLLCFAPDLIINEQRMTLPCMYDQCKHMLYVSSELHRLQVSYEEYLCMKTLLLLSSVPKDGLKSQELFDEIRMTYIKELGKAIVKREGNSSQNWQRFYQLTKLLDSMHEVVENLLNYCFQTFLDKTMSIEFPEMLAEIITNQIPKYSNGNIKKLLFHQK
Experimental: Glucococorticoid receptor (GR) agonist potency was determined in the human chondrosarcoma cell-line SW1353 stably transfected with an MMTV-luciferase reporter construct. SW1353 naturally expresses human GR, which on binding a glucocorticoid agonist activates glucocorticoid response elements within the MMTV promoter, driving expression of the luciferase gene.
Frozen SW1353 cells were revived in DMEM medium, without sodium pyruvate or phenol red, supplemented with 2 mM L-glutamine, 1 μg/ml insulin, 2 mg/ml lactalbumin hydrosylate and 0.5 μg/ml ascorbate. Cells were seeded at approximately 5000 cells/well (35 μl/well) in 384-well clear bottom, tissue culture treated plates. Steroid dose-response dilutions were prepared in steroid diluent (PBS containing 2.5% (v/v) DMSO and 0.05% (v/v) pluronic detergent) and 5 μl added to each well. The volume was made up to 50 μl per well with steroid diluent. Positive control wells contained 1 μM dexamethasone. Plates were incubated for approximately 18 hours at 37° C. in an air/5% CO2 atmosphere in a humidified incubator before Britelite reagent (10 μl; Perkin-Elmer) was added to each well. Each plate was incubated for 2 minutes in the dark and luminescence quantified using a LJL Biosystems Analyst luminometer. Data for test compounds (expressed as percentage of the dexamethasone positive control) were used to construct dose response curves from which EC50 values were estimated.

Compound | IC50 [1] [nM] | EC50 [2] [nM]
C[C@]12C=CC(=O)C=C1[C@@H](F)C[C@H]1[C@@H]3CC[C@](OC(=O)c4ccc(Cc5ccccc5)cc4)(C(=O)OCC#N)[C@@]3(C)C[C@H](O)[C@@]12F [Example 1, cyanomethyl(6alpha,11beta,17alpha)-17-[(4-benzylbenzoyl)oxy]-6,9-difluoro-11-hydroxy-3-oxoandrosta-1,4-diene-17-carboxylate] | 0.095 | 22.3
C[C@]12C=CC(=O)C=C1[C@@H](F)C[C@H]1[C@@H]3CC[C@](OC(=O)c4ccc(-c5ccccc5)cc4)(C(=O)OCC#N)[C@@]3(C)C[C@H](O)[C@@]12F [Example 2, Cyanomethyl(6alpha,11beta,17alpha)-17-[(biphenyl-4-ylcarbonyl)oxy]-6,9-difluoro-11-hydroxy-3-oxoandrosta-1,4-diene-17-carboxylate] | 0.373 | 115
C[C@]12C=CC(=O)C=C1[C@@H](F)C[C@H]1[C@@H]3CC[C@](OC(=O)c4ccc(Sc5ccccc5)cc4)(C(=O)OCC#N)[C@@]3(C)C[C@H](O)[C@@]12F [Example 3, cyanomethyl (6alpha,11beta,17alpha)-6,9-difluoro-11-hydroxy-3-oxo-17-{[4-(phenylthio)benzoyl]oxy}androsta-1,4-diene-17-carboxylate] | 0.143 | 50.5
C[C@]12C=CC(=O)C=C1[C@@H](F)C[C@H]1[C@@H]3CC[C@](OC(=O)c4ccc(Oc5ccccc5)cc4)(C(=O)OCC#N)[C@@]3(C)C[C@H](O)[C@@]12F [Example 4, cyanomethyl (6alpha,11beta,17alpha)-6,9-difluoro-11-hydroxy-3-oxo-17-[(4-phenoxybenzoyl)oxy]androsta-1,4-diene-17-carboxylate] | 0.154 | 23.6
C[C@]12C=CC(=O)C=C1[C@@H](F)C[C@H]1[C@@H]3CC[C@](OC(=O)c4ccc(CSc5ccccc5)cc4)(C(=O)OCC#N)[C@@]3(C)C[C@H](O)[C@@]12F [Example 5, cyanomethyl (6alpha,11beta,17alpha)-6,9-difluoro-11-hydroxy-3-oxo-17-({4-[(phenylthio)methyl]benzoyl}oxy)androsta-1,4-diene-17-carboxylate] | 0.152 | 33.3
C[C@]12C=CC(=O)C=C1[C@@H](F)C[C@H]1[C@@H]3CC[C@](OC(=O)c4ccc(SCc5ccc(O)cc5)cc4)(C(=O)OCC#N)[C@@]3(C)C[C@H](O)[C@@]12F [Example 6, cyanomethyl (6alpha,11beta,17alpha)-6,9-difluoro-11-hydroxy-17-({4-[(4-hydroxybenzyl)thio]benzoyl}oxy)-3-oxoandrosta-1,4-diene-17-carboxylate] | 0.207 | 23.5
C[C@]12C=CC(=O)C=C1CC[C@H]1[C@@H]3CC[C@](OC(=O)c4ccc(-c5ccccc5)cc4)(C(=O)OCC#N)[C@@]3(C)C[C@H](O)[C@@]12F [Example 7, cyanomethyl (11beta,17alpha)-17-[(biphenyl-4-ylcarbonyl)oxy]-9-fluoro-11-hydroxy-3-oxoandrosta-1,4-diene-17-carboxylate] | 0.555 | 39.9
C[C@]12C=CC(=O)C=C1CC[C@H]1[C@@H]3CC[C@](OC(=O)c4ccc(Sc5ccccc5)cc4)(C(=O)OCC#N)[C@@]3(C)C[C@H](O)[C@@]12F [Example 8, cyanomethyl (11beta,17alpha)-9-fluoro-11-hydroxy-3-oxo-17-{[4-(phenylthio)benzoyl]oxy}androsta-1,4-diene-17-carboxylate] | 0.292 | 25
CSc1cccc(Sc2ccc(C(=O)O[C@]3(C(=O)OCC#N)CC[C@H]4[C@@H]5CCC6=CC(=O)C=C[C@]6(C)[C@@]5(F)[C@@H](O)C[C@@]43C)cc2)c1 [Example 10, cyanomethyl (11beta,17alpha)-9-fluoro-11-hydroxy-17-[(4-{[3-(methylthio)-phenyl]thio}benzoyl)oxy]-3-oxoandrosta-1,4-diene-17-carboxylate] | 0.826 | 62.1
C[C@]12C=CC(=O)C=C1[C@@H](F)C[C@H]1[C@@H]3CC[C@](OC(=O)c4ccc(CSc5ccc(O)cc5)cc4)(C(=O)OCC#N)[C@@]3(C)C[C@H](O)[C@@]12F [Example 11, cyanomethyl(6alpha,11beta,17alpha)-6,9-difluoro-11-hydroxy-17-[(4-{[(4-hydroxyphenyl)thio]methyl}benzoyl)oxy]-3-oxoandrosta-1,4-diene-17-carboxylate] | 0.735 | 30.2
C[C@]12C=CC(=O)C=C1CC[C@H]1[C@@H]3CC[C@](OC(=O)c4ccc(Oc5ccc(O)c(Cl)c5)cc4)(C(=O)SCC#N)[C@@]3(C)C[C@H](O)[C@@]12F [Example 12, (11beta,17alpha)-17-{[(cyanomethyl)thio]-carbonyl}-9-fluoro-11-hydroxy-3-oxoandrosta-1,4-dien-17-yl 4-(3-chloro-4-hydroxyphenoxy)benzoate] | 0.345 | 117
C[C@]12C=CC(=O)C=C1CC[C@H]1[C@@H]3CC[C@](OC(=O)c4ccc(Sc5ccc(O)c(Cl)c5)cc4)(C(=O)SCC#N)[C@@]3(C)C[C@H](O)[C@@]12F [Example 13, (11beta,17alpha)-17-{[(cyanomethyl)thio]carbonyl}-9-fluoro-11-hydroxy-3-oxoandrosta-1,4-dien-17-yl 4-[(3-chloro-4-hydroxyphenyl)thio]benzoate] | 0.799 | 80.9
C[C@]12C=CC(=O)C=C1CC[C@H]1[C@@H]3CC[C@](OC(=O)c4ccc(Oc5ccccc5)cc4)(C(=O)OCC#N)[C@@]3(C)C[C@H](O)[C@@]12F [Example 14, cyanomethyl(11beta,17alpha)-9-fluoro-11-hydroxy-3-oxo-17-[(4-phenoxybenzoyl)oxy]androsta-1,4-diene-17-carboxylate] | 0.234 | 23.9
C[C@]12C=CC(=O)C=C1CC[C@H]1[C@@H]3CC[C@](OC(=O)c4ccc(Sc5cccc(O)c5)cc4)(C(=O)OCC#N)[C@@]3(C)C[C@H](O)[C@@]12F [Example 15, cyanomethyl(11beta,17alpha)-9-fluoro-11-hydroxy-17-({4-[(3-hydroxyphenyl)thio]-benzoyl}oxy)-3-oxoandrosta-1,4-diene-17-carboxylate] | 0.164 | 35.1
C[C@]12C=CC(=O)C=C1CC[C@H]1[C@@H]3CC[C@](OC(=O)c4ccc(Oc5ccc(O)cc5)cc4)(C(=O)OCC#N)[C@@]3(C)C[C@H](O)[C@@]12F [Example 16, cyanomethyl (11beta,17alpha)-9-fluoro-11-hydroxy-17-{[4-(4-hydroxyphenoxy)benzoyl]oxy}-3-oxoandrosta-1,4-diene-17-carboxylate] | 0.067 | 24
